Experimental data: article PMC3961306, “Comparison of the Cancer Gene Targeting and Biochemical Selectivities of All Targeted Kinase Inhibitors Approved for Clinical Use” (PLoS ONE, 2014)

How the values were obtained:
Test in all cases: Kinase profiling in a biochemical assay panel (mobility shift assays and ELISA), %-inhibition at 1 μM; selectivity entropy
[1] = biological target: panel of more than 300 wild-type and mutant kinases (313 kinase panel) (Homo sapiens, UniProt P07333)
[2] = biological target: panel of more than 300 wild-type and mutant kinases (313 kinase panel) (Homo sapiens, UniProt P17252)
[3] = biological target: T1, panel of more than 300 wild-type and mutant kinases (313 kinase panel) (Homo sapiens, UniProt Q9NRM7)
T1 sequence (Q9NRM7 1-1088): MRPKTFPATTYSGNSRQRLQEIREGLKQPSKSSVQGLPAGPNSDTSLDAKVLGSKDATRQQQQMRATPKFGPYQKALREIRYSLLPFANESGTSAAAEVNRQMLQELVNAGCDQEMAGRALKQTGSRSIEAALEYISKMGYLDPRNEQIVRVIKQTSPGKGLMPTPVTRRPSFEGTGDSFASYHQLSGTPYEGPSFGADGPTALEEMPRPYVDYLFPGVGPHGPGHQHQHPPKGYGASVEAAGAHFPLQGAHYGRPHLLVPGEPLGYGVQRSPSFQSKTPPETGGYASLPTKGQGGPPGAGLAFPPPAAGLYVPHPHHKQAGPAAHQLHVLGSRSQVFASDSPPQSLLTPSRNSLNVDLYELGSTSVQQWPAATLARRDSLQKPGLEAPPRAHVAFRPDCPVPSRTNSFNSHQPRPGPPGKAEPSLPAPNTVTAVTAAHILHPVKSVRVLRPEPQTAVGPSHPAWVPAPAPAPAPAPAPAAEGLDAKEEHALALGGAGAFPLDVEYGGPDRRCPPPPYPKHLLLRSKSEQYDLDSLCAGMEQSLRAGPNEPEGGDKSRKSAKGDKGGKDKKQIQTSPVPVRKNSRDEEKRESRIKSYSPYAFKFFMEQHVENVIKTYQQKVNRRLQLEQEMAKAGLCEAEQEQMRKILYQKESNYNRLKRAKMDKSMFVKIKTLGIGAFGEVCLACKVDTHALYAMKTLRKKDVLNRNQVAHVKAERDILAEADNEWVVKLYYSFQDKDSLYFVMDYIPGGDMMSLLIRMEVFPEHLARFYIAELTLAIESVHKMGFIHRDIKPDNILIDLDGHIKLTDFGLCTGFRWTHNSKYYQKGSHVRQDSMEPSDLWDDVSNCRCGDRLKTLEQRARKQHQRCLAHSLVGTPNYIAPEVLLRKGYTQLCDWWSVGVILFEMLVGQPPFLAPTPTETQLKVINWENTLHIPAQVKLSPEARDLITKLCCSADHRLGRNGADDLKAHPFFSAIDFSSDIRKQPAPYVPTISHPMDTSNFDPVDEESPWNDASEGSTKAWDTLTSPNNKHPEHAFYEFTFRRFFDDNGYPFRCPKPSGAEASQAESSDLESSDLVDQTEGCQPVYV

[4] = biological target: T2, panel of more than 300 wild-type and mutant kinases (313 kinase panel) (Homo sapiens, UniProt P00540)
T2 sequence (P00540 1-346): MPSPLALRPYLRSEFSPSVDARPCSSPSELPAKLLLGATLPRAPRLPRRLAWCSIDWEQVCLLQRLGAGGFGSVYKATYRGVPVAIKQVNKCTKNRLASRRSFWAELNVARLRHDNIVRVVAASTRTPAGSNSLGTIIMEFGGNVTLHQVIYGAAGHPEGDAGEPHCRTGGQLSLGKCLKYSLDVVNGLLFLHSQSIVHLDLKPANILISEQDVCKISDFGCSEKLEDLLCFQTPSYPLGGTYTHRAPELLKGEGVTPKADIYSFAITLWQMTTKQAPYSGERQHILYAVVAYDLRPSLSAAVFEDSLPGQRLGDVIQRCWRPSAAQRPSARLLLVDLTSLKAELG

[5] = biological target: panel of more than 300 wild-type and mutant kinases (313 kinase panel) (Homo sapiens, UniProt P41240); settings: kinase CSK; compound at 1 μM
panel of more than 300 wild-type and mutant kinases (313 kinase panel) (Homo sapiens, UniProt P41240), sequence (P41240 whole entry, change not shown): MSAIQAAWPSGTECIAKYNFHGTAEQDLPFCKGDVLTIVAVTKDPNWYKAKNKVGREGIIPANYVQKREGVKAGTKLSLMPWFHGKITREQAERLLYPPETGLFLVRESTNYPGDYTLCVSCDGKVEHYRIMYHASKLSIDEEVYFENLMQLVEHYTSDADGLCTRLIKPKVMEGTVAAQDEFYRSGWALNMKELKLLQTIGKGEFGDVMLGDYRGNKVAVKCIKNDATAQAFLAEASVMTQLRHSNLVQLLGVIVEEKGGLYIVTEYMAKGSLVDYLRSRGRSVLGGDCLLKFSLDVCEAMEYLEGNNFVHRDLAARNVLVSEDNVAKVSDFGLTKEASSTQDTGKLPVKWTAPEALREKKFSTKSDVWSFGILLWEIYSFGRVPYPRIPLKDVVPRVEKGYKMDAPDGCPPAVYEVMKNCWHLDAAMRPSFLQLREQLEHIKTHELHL

[6] = biological target: panel of more than 300 wild-type and mutant kinases (313 kinase panel) (Homo sapiens, UniProt P19784)
panel of more than 300 wild-type and mutant kinases (313 kinase panel) (Homo sapiens, UniProt P19784), sequence (P19784 whole entry, stated change not applied): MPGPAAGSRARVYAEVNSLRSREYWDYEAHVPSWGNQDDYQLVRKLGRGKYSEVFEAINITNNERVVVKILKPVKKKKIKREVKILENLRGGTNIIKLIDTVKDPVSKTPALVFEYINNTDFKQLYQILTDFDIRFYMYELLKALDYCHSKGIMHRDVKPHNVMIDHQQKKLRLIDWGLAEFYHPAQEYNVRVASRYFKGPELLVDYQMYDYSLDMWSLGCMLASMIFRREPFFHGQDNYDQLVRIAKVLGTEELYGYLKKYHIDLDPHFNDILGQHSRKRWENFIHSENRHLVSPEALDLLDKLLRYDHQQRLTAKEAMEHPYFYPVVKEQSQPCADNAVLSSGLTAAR

[7] = biological target: panel of more than 300 wild-type and mutant kinases (313 kinase panel) (Homo sapiens, UniProt P16234, T674I); settings: kinase PDGFRα(T674I); 1 μM
panel of more than 300 wild-type and mutant kinases (313 kinase panel) (Homo sapiens, UniProt P16234, T674I), sequence (P16234 24-1089 T674I): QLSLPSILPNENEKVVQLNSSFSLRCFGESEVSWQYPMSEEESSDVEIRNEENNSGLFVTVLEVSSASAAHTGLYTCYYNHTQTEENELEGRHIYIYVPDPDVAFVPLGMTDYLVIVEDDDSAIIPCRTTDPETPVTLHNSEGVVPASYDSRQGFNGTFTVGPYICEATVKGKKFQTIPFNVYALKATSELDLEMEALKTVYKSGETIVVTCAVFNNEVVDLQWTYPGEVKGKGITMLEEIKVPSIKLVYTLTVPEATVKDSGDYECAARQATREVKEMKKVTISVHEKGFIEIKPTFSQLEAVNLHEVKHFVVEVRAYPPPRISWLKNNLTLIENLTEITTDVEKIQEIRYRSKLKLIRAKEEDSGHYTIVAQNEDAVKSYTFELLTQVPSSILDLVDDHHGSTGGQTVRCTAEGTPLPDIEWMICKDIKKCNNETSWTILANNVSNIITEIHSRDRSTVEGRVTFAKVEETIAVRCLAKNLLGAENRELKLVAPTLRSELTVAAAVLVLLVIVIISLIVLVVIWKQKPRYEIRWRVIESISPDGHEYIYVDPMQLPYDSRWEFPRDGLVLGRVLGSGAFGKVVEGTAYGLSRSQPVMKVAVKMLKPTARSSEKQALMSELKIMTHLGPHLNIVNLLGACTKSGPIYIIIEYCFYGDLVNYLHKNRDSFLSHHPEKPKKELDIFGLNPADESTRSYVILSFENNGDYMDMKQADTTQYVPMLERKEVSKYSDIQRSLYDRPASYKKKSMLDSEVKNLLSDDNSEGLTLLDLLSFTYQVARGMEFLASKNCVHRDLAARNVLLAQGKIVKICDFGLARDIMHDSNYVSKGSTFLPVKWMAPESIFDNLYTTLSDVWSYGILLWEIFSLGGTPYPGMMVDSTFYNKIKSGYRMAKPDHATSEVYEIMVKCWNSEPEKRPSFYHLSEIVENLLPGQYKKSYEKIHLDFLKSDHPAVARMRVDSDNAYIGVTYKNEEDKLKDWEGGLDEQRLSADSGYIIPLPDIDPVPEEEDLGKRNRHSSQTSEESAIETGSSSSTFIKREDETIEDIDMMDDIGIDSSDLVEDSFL

[8] = biological target: panel of more than 300 wild-type and mutant kinases (313 kinase panel) (Homo sapiens, UniProt P04629)
[9] = biological target: panel of more than 300 wild-type and mutant kinases (313 kinase panel) (Homo sapiens, UniProt P50613)
panel of more than 300 wild-type and mutant kinases (313 kinase panel) (Homo sapiens, UniProt P50613), sequence (P50613 whole entry, change not shown): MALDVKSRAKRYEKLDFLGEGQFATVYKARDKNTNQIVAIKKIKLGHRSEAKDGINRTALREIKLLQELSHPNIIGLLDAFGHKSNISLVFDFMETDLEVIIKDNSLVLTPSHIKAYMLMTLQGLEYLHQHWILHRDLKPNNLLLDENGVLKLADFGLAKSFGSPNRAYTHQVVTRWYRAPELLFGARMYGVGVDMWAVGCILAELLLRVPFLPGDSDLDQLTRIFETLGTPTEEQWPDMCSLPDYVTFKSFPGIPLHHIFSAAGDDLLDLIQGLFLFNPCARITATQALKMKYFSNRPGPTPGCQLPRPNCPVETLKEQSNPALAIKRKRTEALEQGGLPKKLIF

[10] = biological target: panel of more than 300 wild-type and mutant kinases (313 kinase panel) (Homo sapiens, UniProt P17948)
[11] = biological target: panel of more than 300 wild-type and mutant kinases (313 kinase panel) (Homo sapiens, UniProt P21802)
[12] = biological target: panel of more than 300 wild-type and mutant kinases (313 kinase panel) (Homo sapiens, UniProt P07949)
panel of more than 300 wild-type and mutant kinases (313 kinase panel) (Homo sapiens, UniProt P07949), sequence (P07949 29-1114, change not shown): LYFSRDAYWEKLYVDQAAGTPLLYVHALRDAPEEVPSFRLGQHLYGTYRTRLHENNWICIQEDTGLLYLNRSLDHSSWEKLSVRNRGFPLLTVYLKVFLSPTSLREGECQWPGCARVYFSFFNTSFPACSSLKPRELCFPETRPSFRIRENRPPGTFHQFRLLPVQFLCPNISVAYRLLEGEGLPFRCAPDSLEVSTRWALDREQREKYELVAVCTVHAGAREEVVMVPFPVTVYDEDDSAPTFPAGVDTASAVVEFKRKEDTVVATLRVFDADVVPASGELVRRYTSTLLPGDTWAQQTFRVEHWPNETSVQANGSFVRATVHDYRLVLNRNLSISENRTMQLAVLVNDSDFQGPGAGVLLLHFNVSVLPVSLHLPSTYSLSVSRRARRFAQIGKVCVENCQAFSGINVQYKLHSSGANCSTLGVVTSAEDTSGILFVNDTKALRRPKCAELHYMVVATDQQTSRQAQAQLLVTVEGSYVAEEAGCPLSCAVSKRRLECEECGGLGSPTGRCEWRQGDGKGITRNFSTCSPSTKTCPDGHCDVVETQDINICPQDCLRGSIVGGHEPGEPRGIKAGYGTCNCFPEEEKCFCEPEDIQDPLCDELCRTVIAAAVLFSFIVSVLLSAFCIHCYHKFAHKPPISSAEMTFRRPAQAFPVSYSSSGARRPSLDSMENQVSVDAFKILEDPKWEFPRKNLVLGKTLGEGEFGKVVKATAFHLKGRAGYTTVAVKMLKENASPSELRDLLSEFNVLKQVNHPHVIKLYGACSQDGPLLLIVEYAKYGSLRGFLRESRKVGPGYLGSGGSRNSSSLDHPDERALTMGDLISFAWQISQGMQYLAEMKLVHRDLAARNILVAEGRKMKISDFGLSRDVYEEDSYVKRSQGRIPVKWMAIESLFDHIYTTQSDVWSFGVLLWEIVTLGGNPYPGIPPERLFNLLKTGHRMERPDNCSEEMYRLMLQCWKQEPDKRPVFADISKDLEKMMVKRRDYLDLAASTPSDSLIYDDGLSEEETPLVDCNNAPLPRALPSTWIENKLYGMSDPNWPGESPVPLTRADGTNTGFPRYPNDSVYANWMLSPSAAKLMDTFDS

[13] = kinase CDK7/CycH/MAT1, 1 μM compound

SMILES	%-inhibition of FMS ([1]; kinase FMS, compound at 1 μM) [%]	%-inhibition of PKCα ([2]; kinase PKCα, 1 μM) [%]	%-inhibition of LATS2 ([3]; kinase LATS2, compound at 1 μM) [%]	%-inhibition of MOS ([4]; kinase MOS, 1 μM) [%]	%-inhibition of CSK [5] [%]	%-inhibition, CK2α2/β ([6]; kinase CK2α2/β, 1 μM compound) [%]	%-inhibition of PDGFRα(T674I) [7] [%]	%-inhibition of TRKA ([8]; kinase TRKA, 1 μM) [%]	%-inhibition, CDK7/CycH/MAT1 [9, 13] [%]	%-inhibition of FLT1 ([10]; kinase FLT1, compound at 1 μM) [%]	%-inhibition of FGFR2 ([11]; kinase FGFR2, compound at 1 μM) [%]	also measured
COc1cc2nccc(Oc3ccc(NC(=O)C4(C(=O)Nc5ccc(F)cc5)CC4)cc3)c2cc1OC [cabozantinib]	54	-8.47	-5.61	42	60	9	97	100	-10	99	32	
Cc1nc(Nc2ncc(C(=O)Nc3c(C)cccc3Cl)s2)cc(N2CCN(CCO)CC2)n1 [dasatinib]			-7			-4.67						
COc1cc2c(Nc3ccc(Br)cc3F)ncnc2cc1OCC1CCN(C)CC1 [vandetanib]		-0.27	-8	9	68	-7	91	46	-4.26		103	
CC(C)(C)c1nc(-c2cccc(NS(=O)(=O)c3c(F)cccc3F)c2F)c(-c2ccnc(N)n2)s1 [dabrafenib]	15		0.57	-12	98		18			62	4	%-inhibition of RET ([12]; kinase RET, 1 μM): 49%
Cc1ccc(Nc2nccc(N(C)c3ccc4c(C)n(C)nc4c3)n2)cc1S(N)(=O)=O [pazopanib]		6	-0.465	-12	12	0.17			9	100	97	
N#CC[C@H](C1CCCC1)n1cc(-c2ncnc3[nH]ccc23)cn1 [ruxolitinib]		8	37	8	-0.827		17	92		11	29	%-inhibition of FMS ([1]; 1 µM): 68%; %-inhibition, CK2α2/β ([6]; 1 µM): -7%; %-inhibition, CDK7/CycH/MAT1 ([9]; 1 µM): 3.25%
C[C@@H](Oc1cc(-c2cnn(C3CCNCC3)c2)cnc1N)c1c(Cl)ccc(F)c1Cl [crizotinib]	92	-8.47	-6	1.25	9	-10	95	103	58	53	27	
CN(C)C/C=C/C(=O)Nc1cc2c(Nc3ccc(F)c(Cl)c3)ncnc2cc1O[C@H]1CCOC1 [afatinib]				-2								
C#Cc1cccc(Nc2ncnc3cc(OCCOC)c(OCCOC)cc23)c1 [erlotinib]												%-inhibition of PKCα ([2]; 1 µM): 8%; %-inhibition of LATS2 ([3]; 1 µM): -8%; %-inhibition of MOS ([4]; 1 µM): 3.64%; %-inhibition, CK2α2/β ([6]; 1 µM): -5.48%; %-inhibition of TRKA ([8]; 1 µM): 14%; %-inhibition, CDK7/CycH/MAT1 ([9]; 1 µM): 1.22%; %-inhibition of FLT1 ([10]; 1 µM): 70%; %-inhibition of FGFR2 ([11]; 1 µM): 58%; %-inhibition of RET ([12]; 1 µM): 70%
CCN(CC)CCNC(=O)c1c(C)[nH]c(/C=C2\C(=O)Nc3ccc(F)cc32)c1C [sunitinib]						25		98		98	97	
Cc1ccc(C(=O)Nc2ccc(CN3CCN(C)CC3)c(C(F)(F)F)c2)cc1C#Cc1cnc2cccnn12 [ponatinib]	101	-3.29	16	1.59			99	101	9	101	100	%-inhibition of RET ([12]; kinase RET, 1 μM): 102%
